From patent publication US20230097253A1, “NOVEL QUINAZOLINE COMPOUND AS THERAPEUTIC AGENT FOR METABOLIC DISORDERS” (BIOWAY., INC, priority 2020, published 2023)

How the values were obtained:
[1] = test system: steatosis-induced Huh7 cells; assay: Quantitative analysis of mRNA of lipogenesis-related factors (qRT-PCR); format: cell-based; conditions: 250 μM PA, 0.5 μM, 24 hours, compared to the control group, FIG. 9-B
Procedure: To induce steatosis in Huh-7 cells in each well except for control cells, the Huh-7 cells were treated with PA bound to 2% BSA at a concentration of 250 μM except for the control, and the control cells were pretreated with 2% BSA without FA.
The cells in each well were treated with the compound of Chemical Formula 2 according to the present invention 0.5 μM and then cultured for 24 hours. The control cells and PA treated cells were treated with DMSO. All media were aspirated and the cells were gently washed 3 times with cold PBS.
Additionally, the total RNA was extracted using the RNeasy RNA isolation kit (Qiagen, Hilden, Germany).
Additionally, 10 μL of […] per mL of a cell lysis solution was additionally prepared.
Additionally, the cells were washed twice with cold PBS and 350 μL of RNA lysis buffer was added thereto.
Additionally, 70% EtOH was added to the lysate in an equal volume, mixed by pipetting, transferred to a spin column, and centrifuged at 8,000×g for 15 seconds.
Additionally, the flow-through solution was removed and 700 μL of a wash solution was added to the spin column, centrifuged at 8,000×g, and the flow-through solution was removed. […]
Additionally, RNA concentration was measured at OD 260 nm using the Nanophotometer N60 (Implen, Munich, Germany) […]

SIRT1 = molecular target: T1, SIRT1 (Homo sapiens, UniProt Q96EB6); assay: Measurement of SIRT1 activity (Sirt1 direct fluorescent screening assay kit); format: biochemical; conditions: compared with the control (RSV, resveratrol); FIG. 14
T1 construct: purchased Cayman
T1 sequence (Q96EB6 1-747): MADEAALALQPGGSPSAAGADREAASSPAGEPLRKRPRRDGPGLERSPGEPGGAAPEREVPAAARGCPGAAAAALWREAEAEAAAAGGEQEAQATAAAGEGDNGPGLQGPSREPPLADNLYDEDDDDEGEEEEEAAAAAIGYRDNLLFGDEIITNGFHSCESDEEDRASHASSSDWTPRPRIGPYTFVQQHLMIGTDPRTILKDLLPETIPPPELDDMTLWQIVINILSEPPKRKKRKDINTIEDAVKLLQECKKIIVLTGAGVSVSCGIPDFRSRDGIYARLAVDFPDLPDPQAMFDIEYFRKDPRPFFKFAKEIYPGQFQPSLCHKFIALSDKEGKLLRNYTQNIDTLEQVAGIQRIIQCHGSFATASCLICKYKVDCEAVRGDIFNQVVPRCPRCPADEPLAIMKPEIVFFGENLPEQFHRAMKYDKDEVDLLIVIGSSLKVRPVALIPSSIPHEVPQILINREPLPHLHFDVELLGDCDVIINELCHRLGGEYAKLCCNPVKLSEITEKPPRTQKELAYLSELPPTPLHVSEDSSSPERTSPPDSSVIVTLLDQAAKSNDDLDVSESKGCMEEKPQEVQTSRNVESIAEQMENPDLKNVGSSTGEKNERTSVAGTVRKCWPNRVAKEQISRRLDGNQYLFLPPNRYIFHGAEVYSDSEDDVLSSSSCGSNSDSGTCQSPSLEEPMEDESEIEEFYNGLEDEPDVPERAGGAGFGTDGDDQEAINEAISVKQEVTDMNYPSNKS
Procedure: All of the materials were provided from Sirt1 direct fluorescent screening assay kit (Cayman, Ann Arbor, Mich., USA).
SIRT1, p53 conjugated aminomethylcoumarin (AMC) protein, and 3 mM NAD+ were added to diluted assay buffer (50 mM Tris-HCl, pH 8.0, 137 mM NaCl, 2.7 mM KCl, and 1 mM MgCl2).
Three 100% initial activity wells among the 96-wells were added with 25 μL of assay buffer, 5 μL of diluted SIRT1, and 5 μL of a solvent.
Three background wells among the 96-wells were added with 30 μL of assay buffer and […].
Three sample wells among the 96-wells were added with 25 μL of assay buffer, 5 μL of diluted SIRT1, and 5 μL of a diluted test compound. The final DMSO concentration was lower than 2%. […]
After removing the plate cover, the plate was read with Cytation 5 using an excitation wavelength at 360 nm and an emission wavelength at 450 nm.
Then, the average level of fluorescence for each sample was measured.
The fluorescence level of the background well was subtracted from the fluorescence level of the 100% starting active well and that of the sample well.
To determine the percentage of each sample, each sample value was subtracted from the 100% initial activity value, divided by the 100% initial activity value, and multiplied by 100, and the resulting value was added to 100 and expressed as a percentage. […]

**Q.** `CC(C)C(Nc1ncnc2nc[nH]c12)c1nc2cccc(Cl)c2c(=O)n1-c1ccccc1` (stereo not drawn) [BW-3290, 2-(1-((7H-purin-6-yl)amino)-2-methylpropyl)-5-chloro-3-phenylquinazolin-4(3H)-one] was tested. Which “gene expression (mRNA) of FAS” value [1] did it give?
**A.** reduced

**Q.** What about the “gene expression (mRNA) of SREBP-1c” value [1] of the same compound?
**A.** reduced

**Q.** And the SIRT1 activity level (SIRT1)?
**A.** further increases
